Experimental data reported in patent publication US20240336643A1, “BIFUNCTIONAL COMPOUNDS THAT DEGRADE ALK AND USES THEREOF” (DANA-FARBER CANCER INSTITUTE, INC., priority 2021, published 2024).
Where two headings read alike, the source gives them in different places.

What was measured:
[1] = target: HiBiT G1202R Variant 1 EML4-ALK (Homo sapiens, UniProt Q9UM73, G1202R); assay type: cell-based; conditions: Ba/F3 cells, 0.0003-2 μM, 4 hours; for DC50: read-out: BAF3 Cellular Degradation - HiBiT G1202R Variant 1 EML4-ALK: DC50; for Dmax: BaF3, maximal level of degradation, read-out: BAF3 Cellular Degradation - HiBiT G1202R Variant 1 EML4-ALK: Dmax
Chain of HiBiT G1202R Variant 1 EML4-ALK (Q9UM73 with tags, fused parts or gaps G1202R): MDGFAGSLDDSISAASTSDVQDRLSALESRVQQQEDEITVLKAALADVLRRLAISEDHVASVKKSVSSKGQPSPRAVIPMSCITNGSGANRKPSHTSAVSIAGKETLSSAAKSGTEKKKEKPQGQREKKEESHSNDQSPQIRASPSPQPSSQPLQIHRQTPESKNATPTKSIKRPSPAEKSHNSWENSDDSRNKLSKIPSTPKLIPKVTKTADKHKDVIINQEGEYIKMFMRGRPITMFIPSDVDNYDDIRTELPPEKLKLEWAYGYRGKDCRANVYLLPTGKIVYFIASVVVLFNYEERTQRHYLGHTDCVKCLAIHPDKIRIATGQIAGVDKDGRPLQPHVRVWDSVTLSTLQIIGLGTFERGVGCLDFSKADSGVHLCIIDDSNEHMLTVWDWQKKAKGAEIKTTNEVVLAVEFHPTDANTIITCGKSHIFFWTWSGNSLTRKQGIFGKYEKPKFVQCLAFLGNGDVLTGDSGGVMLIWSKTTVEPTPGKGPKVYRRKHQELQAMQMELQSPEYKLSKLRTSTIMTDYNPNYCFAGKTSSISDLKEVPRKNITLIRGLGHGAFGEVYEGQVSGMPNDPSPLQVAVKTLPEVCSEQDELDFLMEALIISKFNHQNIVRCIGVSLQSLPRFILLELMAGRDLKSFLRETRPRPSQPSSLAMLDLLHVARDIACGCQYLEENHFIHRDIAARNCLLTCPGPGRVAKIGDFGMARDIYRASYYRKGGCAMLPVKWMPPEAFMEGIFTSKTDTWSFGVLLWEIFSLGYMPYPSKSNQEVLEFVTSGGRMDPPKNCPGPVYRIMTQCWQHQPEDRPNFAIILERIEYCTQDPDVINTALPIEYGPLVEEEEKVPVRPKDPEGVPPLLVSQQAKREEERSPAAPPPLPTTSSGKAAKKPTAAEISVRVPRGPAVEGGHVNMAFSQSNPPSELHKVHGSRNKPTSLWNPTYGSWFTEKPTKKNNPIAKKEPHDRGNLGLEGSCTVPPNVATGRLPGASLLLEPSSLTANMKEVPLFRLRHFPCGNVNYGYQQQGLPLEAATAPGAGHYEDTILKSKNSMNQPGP
Chain of HiBiT G1202R Variant 1 EML4-ALK (Q96SW2 whole entry partner): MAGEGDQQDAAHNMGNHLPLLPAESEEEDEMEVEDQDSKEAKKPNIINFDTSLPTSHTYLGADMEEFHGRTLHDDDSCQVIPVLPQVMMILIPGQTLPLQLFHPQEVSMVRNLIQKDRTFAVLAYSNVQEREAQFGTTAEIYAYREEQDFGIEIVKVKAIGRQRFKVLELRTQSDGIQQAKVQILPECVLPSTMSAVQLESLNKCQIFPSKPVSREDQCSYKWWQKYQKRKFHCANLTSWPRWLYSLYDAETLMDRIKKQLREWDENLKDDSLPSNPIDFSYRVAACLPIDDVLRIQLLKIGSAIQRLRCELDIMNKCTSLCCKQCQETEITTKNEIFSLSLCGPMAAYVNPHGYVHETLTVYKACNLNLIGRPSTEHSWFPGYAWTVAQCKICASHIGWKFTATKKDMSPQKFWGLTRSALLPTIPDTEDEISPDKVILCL
Chain of HiBiT G1202R Variant 1 EML4-ALK (Q3U1J4 whole entry partner): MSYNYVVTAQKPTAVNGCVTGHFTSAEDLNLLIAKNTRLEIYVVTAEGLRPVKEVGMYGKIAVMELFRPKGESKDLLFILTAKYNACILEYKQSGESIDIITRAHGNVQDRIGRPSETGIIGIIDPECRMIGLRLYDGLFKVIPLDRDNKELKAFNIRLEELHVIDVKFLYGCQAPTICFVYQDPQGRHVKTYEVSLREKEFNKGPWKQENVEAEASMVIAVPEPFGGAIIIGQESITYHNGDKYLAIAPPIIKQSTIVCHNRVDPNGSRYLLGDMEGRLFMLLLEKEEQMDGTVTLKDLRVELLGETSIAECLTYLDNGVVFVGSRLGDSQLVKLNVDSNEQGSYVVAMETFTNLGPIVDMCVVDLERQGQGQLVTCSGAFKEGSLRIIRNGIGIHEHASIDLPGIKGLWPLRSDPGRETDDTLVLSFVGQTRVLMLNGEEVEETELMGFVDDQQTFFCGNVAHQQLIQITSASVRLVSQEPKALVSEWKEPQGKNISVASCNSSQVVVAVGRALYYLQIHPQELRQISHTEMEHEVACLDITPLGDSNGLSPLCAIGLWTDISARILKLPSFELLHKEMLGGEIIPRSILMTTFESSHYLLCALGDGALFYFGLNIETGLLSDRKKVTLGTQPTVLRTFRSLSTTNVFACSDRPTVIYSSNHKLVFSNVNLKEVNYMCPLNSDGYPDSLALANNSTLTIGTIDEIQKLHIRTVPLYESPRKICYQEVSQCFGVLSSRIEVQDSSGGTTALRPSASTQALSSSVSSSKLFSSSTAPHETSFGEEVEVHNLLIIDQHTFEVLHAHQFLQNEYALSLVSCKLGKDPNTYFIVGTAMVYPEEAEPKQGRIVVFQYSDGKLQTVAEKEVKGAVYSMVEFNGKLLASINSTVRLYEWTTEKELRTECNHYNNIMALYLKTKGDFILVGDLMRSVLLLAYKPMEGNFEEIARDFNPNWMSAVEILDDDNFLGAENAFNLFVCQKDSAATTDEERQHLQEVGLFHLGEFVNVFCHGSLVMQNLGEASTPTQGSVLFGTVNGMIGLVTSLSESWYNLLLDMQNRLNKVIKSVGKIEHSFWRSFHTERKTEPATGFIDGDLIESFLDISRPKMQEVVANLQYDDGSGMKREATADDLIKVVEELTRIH

[2] = target: BAF3 Cells with Variant 3 EML4-ALK^WT (Homo sapiens, UniProt Q9UM73); conditions: read-out: BAF3 Cells with Variant 3 EML4-ALK^WT (IC50); 72 hours, CellTiter-Glo
Chain of BAF3 Cells with Variant 3 EML4-ALK^WT (Q9UM73 whole entry, stated change not applied): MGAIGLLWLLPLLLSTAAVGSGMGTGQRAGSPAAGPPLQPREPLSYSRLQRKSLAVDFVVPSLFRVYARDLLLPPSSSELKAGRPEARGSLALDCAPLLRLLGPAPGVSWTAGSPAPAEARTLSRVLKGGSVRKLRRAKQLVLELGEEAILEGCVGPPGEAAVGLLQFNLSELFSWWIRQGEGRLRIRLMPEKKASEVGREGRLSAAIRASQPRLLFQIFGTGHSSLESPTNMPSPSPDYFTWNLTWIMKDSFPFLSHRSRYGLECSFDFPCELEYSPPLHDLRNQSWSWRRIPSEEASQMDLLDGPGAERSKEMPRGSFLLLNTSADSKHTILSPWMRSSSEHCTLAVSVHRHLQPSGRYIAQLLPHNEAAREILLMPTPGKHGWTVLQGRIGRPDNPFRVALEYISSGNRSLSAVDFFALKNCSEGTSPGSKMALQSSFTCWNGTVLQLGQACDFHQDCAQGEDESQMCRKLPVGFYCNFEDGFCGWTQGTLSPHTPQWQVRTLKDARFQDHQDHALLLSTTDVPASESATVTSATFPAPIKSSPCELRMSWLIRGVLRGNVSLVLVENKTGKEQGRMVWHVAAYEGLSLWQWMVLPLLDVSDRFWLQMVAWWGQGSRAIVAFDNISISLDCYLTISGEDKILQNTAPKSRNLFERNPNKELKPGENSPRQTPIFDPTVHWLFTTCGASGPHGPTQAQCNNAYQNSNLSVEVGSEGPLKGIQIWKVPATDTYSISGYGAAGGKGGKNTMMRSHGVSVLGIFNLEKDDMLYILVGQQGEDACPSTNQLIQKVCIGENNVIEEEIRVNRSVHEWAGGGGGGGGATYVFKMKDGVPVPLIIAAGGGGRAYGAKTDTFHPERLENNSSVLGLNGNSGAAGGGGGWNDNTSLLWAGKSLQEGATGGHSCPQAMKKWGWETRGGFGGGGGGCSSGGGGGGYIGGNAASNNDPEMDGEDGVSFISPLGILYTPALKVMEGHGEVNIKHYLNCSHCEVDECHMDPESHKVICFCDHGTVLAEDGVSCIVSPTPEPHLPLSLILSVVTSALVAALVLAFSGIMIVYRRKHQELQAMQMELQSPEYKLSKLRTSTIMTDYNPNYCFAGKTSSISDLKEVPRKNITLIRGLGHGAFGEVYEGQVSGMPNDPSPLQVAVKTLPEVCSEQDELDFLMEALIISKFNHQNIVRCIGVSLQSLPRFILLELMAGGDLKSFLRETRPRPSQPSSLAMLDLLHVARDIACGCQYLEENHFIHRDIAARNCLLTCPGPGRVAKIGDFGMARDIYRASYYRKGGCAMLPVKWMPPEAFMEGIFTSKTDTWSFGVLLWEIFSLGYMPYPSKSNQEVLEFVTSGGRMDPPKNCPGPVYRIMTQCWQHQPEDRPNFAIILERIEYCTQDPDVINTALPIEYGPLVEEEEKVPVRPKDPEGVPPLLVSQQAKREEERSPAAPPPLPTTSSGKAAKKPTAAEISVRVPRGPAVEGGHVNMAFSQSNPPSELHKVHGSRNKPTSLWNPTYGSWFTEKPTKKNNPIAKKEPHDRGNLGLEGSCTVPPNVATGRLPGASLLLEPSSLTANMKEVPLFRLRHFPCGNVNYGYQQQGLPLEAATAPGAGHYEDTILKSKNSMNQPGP
Procedure: (§1) The 3-day viability assay was performed by seeding the cells at 750 cells per 50 μL volume of complete medium per well. Following the seeding of the cells, the plate was briefly spun down to let the cells settle at the bottom of the plate before treating with compounds at a dose range using d300e. Once the cells were treated, the cells were incubated at 37° C. with 5% CO2 for 72 hours. At the end of the treatment duration, the plate was brought to root temperature to equilibrate before adding 12.5 μL of the CellTiter-Glo® reagent per well. The plate was shaken using a plate shaken at 50 rpm for 5 minutes at room temperature and then incubated for 5 minutes in the dark before the plates were read using a luminescence based plate reader.
(§2) IC50 values were determined using a non-linear regression curve fit in GraphPad Prism (Version 9.1.0).

[3] = target: BAF3 Cells with Variant 3 EML4-ALK^G1202R (Homo sapiens, UniProt Q9UM73, G1202R, cells depend on it); conditions: read-out: BAF3 Cells with Variant 3 EML4-ALK^G1202R (IC50)
Chain of BAF3 Cells with Variant 3 EML4-ALK^G1202R (Q9UM73 whole entry G1202R): as the sequence (Q9UM73 whole entry, stated change not applied) above, with G1202R counted along it
Procedure: as §1, §2

[4] = Mouse oral PK study; assay type: in vivo, male C57BI/6 mice; conditions: for Vd: C57BI/6, mouse, iv, 2 mg/kg
Procedure: Standard oral PK studies were conducted using male C57BI/6 mice obtained from BioDuro Shanghai. […] Plasma concentrations of compound 1 reported at each of the 9 time points (5 min, 15 min, 30 min, 1 h, 2 h, 4 h, 6 h, 8 h and 24 h post dosing) are the average values from 3 test animals.

[5] = system: proteins in MOLT4 cells; assay: Quantitative mass spectrometry proteomics, relative protein abundance; assay type: cell-based; conditions: 1 μM, 5 hours, cut-offs 2-fold change, p value 0.001
Procedure: Relative fold-change (FC) abundance of proteins in MOLT4 cells treated with compound 1 (1 μM) for 5 hours was determined using quantitative mass spectrometry proteomics (protocol was published previously: Donovan et al., Cell 183:1714-1731 (2020)). Dotted lines signify a 2-fold change in protein levels and a p value of 0.001. […] FER is a cytoplasmic tyrosine kinase and its kinase function […] for STAT3 phosphorylation in tumor cell transformation and growth, but siRNA knock down of FER leads to decreased phospho-STAT3 and reduced STAT3 activation and inhibition of tumor growth in vivo (Lennartsson et al., J. Biol. Chem. 288:15736-15744 (2013)). STAT3 activation plays a key role in several cancers, including colon cancer (Gargalionis et al., Biomedicines 9:1016 (2021)). Therefore, inhibition of STAT3 signaling through depletion of FER using a targeted protein degrader is useful in the treatment of such cancers.

[6] = target: T1, FER in HCT116 cells (Homo sapiens, UniProt P16591); assay: Western blotting for FER degradation; assay type: cell-based; conditions: various concentrations, 24 hours
T1 construct: endogenous in cells; host or cells: HCT116
T1 sequence (P16591 whole entry): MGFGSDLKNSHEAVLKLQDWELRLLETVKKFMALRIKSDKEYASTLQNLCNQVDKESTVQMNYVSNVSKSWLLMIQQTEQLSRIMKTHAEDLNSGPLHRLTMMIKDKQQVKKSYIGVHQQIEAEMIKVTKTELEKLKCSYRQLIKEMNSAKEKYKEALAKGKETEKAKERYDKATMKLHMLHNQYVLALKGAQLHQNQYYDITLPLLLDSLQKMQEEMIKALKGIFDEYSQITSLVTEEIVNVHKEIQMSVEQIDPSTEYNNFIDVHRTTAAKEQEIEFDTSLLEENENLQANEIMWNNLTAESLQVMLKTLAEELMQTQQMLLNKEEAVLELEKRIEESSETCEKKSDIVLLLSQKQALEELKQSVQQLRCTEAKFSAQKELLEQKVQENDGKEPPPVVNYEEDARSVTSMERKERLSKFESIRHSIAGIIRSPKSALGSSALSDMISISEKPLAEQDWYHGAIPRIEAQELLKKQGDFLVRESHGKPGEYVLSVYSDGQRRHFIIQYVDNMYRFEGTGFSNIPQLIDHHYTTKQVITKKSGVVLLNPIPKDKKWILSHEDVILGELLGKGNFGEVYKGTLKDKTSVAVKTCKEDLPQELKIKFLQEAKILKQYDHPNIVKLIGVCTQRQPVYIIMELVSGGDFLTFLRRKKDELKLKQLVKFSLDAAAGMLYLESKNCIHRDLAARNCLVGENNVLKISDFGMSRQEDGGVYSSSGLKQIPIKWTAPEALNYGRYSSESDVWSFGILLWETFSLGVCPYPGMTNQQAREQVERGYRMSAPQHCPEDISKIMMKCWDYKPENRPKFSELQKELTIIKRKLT
Procedure: HCT116 cells were treated with compound 1 or a FER kinase inhibitor E260 (Elkis et al., Nat. Commun. 8:940 (2017)) at various concentrations for 24 hours, along with DMSO (not shown) and ethanol as controls (FIG. 2). 18 μg of protein was loaded in each lane and Western blotting was performed for FER, CRBN, and loading control ACTIN.

[7] = male, C57BI/6, 10 mg/kg, PO, single dose, plasma
[8] = male, C57BI/6, IV, single 2 mg/kg, plasma

SMILES: CNC(=O)c1ccccc1Nc1nc(Nc2cc(C)c(C3CCN(CC4CCN(c5ccc6c(c5)C(=O)N(C5CCC(=O)NC5=O)C6=O)CC4)CC3)cc2OC)ncc1C(F)(F)F (stereo not drawn) [Compound 17, 2-{[2-({4-[1-({1-[2-(2,6-dioxopiperidin-3-yl)-1,3-dioxo-2,3-dihydro-1H-isoindol-5-yl]piperidin-4-yl}methyl)piperidin-4-yl]-2-methoxy-5-methylphenyl}amino)-5-(trifluoromethyl)pyrimidin-4-yl]amino}-N-methylbenzamide]
- DC50 [1]: 23 nM
- Dmax [1]: 77%

SMILES: COc1cc(C2CCN(CCC3CN(c4ccc5c(c4)C(=O)N(C4CCC(=O)NC4=O)C5=O)C3)CC2)c(C)cc1Nc1ncc(Cl)c(Nc2ccccc2S(=O)(=O)C(C)C)n1 (stereo not drawn) [Compound 2]
- DC50 [1]: 10 nM
- Dmax [1]: 76%

SMILES: Cc1cc(Nc2ncc(Cl)c(Nc3ccccc3S(=O)(=O)C(C)C)n2)c(OC(C)C)cc1C1CCNCC1 [Ceritinib]
- GI50 [2]: 85 nM
- GI50 ([3]; 72 hours, CellTiter-Glo): 357 nM

SMILES: CNC(=O)c1ccccc1Nc1nc(Nc2cc(C)c(C3CCN(CC4CN(c5ccc6c(c5)C(=O)N(C5CCC(=O)NC5=O)C6=O)C4)CC3)cc2OC(C)C)ncc1C(F)(F)F (stereo not drawn) [Compound 18, 2-{[2-({4-[1-({1-[2-(2,6-dioxopiperidin-3-yl)-1,3-dioxo-2,3-dihydro-1H-isoindol-5-yl]azetidin-3-yl}methyl)piperidin-4-yl]-5-methyl-2-(propan-2-yloxy)phenyl}amino)-5-(trifluoromethyl)pyrimidin-4-yl]amino}-N-methylbenzamide]
- DC50 [1]: 71 nM
- Dmax [1]: 68%

SMILES: CCc1cc2c(cc1N1CC(CN3CCC(c4ccc5c(c4)CN(C4CCC(=O)NC4=O)C5=O)CC3)C1)C(C)(C)c1[nH]c3cc(C#N)ccc3c1C2=O (stereo not drawn) [Compound 23]
- DC50 [1]: 95 nM
- Dmax [1]: 63%

SMILES: CNC(=O)c1ccccc1Nc1nc(Nc2cc(C)c(C3CCN(CC4CCN(c5ccc6c(c5)C(=O)N(C5CCC(=O)NC5=O)C6=O)CC4)CC3)cc2OC(C)C)ncc1C(F)(F)F (stereo not drawn) [Compound 19, 2-{[2-({4-[1-({1-[2-(2,6-dioxopiperidin-3-yl)-1,3-dioxo-2,3-dihydro-1H-isoindol-5-yl]piperidin-4-yl}methyl)piperidin-4-yl]-5-methyl-2-(propan-2-yloxy)phenyl}amino)-5-(trifluoromethyl)pyrimidin-4-yl]amino}-N-methylbenzamide]
- DC50 [1]: 114 nM
- Dmax [1]: 55%

SMILES: COc1cc(N2CCC(N3CCN(C)CC3)CC2)ccc1Nc1ncc(Cl)c(Nc2ccccc2P(C)(C)=O)n1 [Brigatinib]
- GI50 ([3]; baf3 cells with variant 3 eml4-alk^g1202r): 183 nM

SMILES: COc1cc(C2CCN(CC3CN(c4ccc5c(c4)C(=O)N(C4CCC(=O)NC4=O)C5=O)C3)CC2)c(C)cc1Nc1ncc(Cl)c(Nc2ccccc2S(=O)(=O)C(C)C)n1 (stereo not drawn) [Compound 1, 5-{3-[(4-{4-[(5-chloro-4-{[2-(propane-2-sulfonyl)phenyl]amino}pyrimidin-2-yl)amino]-5-methoxy-2-methylphenyl}piperidin-1-yl)methyl]azetidin-1-yl}-2-(2,6-dioxopiperidin-3-yl)-2,3-dihydro-1H-isoindole-1,3-dione]
- AUCExtr ([4]; IV, single 2 mg/kg, plasma): 1.65%
- F ([4]; PO versus IV): 28.0%
- AUCExtr ([4]; PO, single dose, plasma): 5.08%
- AUCInf/D ([4]; PO, single dose, plasma): 0.605 hr*kg*nM/nmol
- In vivo metabolic stability, plasma exposure and clearance (in words) ([4]; conclusion from Table 3): good in vivo metabolic stability, plasma exposure, and slow clearance rate
- AUC(0-inf) [4, 7]: 7.08 µM·h
- AUC(0-t) [4, 7]: 6.73 µM·h
- Cmax [4, 7]: 658 nM
- MRT inf [4, 7]: 8.51 h
- Tmax [4, 7]: 1.67 h
- half-life [4, 7]: 5.37 h
- AUC(0-inf) [4, 8]: 5.05 µM·h
- AUC(0-t) [4, 8]: 4.97 µM·h
- C0 [4, 8]: 2340 nM
- MRT inf [4, 8]: 4.95 h
- clearance [4, 8]: 7.73 mL/min/kg
- half-life [4, 8]: 4.41 h
- Vd ([4]; male, plasma, IV, single 2 mg/kg, plasma, read-out: Vss): 2.29 L/kg
- Vd ([4]; male, plasma, IV, single 2 mg/kg, plasma, read-out: Vz): 2.95 L/kg
- Relative fold-change abundance of proteins (downregulated proteins) [5]: downregulated PLK4, CAMK1D, FAK2, RSK1, ACK1 and FER
- Downregulation of FER (Western blot) [6]: significantly downregulated FER

SMILES: COc1cc(CN2CCC(O)(c3ccc4c(c3)CN(C3CCC(=O)NC3=O)C4=O)CC2)c(C)cc1Nc1ncc(Cl)c(Nc2ccccc2S(=O)(=O)C(C)C)n1 (stereo not drawn) [Compound 26, 3-(5-(1-(4-((5-chloro-4-((2-(isopropylsulfonyl)phenyl)amino)pyrimidin-2-yl)amino)-5-methoxy-2-methylbenzyl)-4-hydroxypiperidin-4-yl)-1-oxoisoindolin-2-yl)piperidine-2,6-dione]
- DC50 [1]: 147 nM
- Dmax [1]: 62%

SMILES: COc1cc(C2CCN(CC3CC4(C3)CN(c3ccc5c(c3)C(=O)N(C3CCC(=O)NC3=O)C5=O)C4)CC2)c(C)cc1Nc1ncc(Cl)c(Nc2ccccc2S(=O)(=O)C(C)C)n1 (stereo not drawn) [Compound 16, 5-(6-((4-(4-((5-chloro-4-((2-(isopropylsulfonyl)phenyl)amino)pyrimidin-2-yl)amino)-5-methoxy-2-methylphenyl)piperidin-1-yl)methyl)-2-azaspiro[3.3]heptan-2-yl)-2-(2,6-dioxopiperidin-3-yl)isoindoline-1,3-dione]
- DC50 [1]: 79 nM

SMILES: COc1cc(C2CCN(C[C@@H]3CCN(c4ccc5c(c4)C(=O)N(C4CCC(=O)NC4=O)C5=O)C3)CC2)c(C)cc1Nc1ncc(Cl)c(Nc2ccccc2S(=O)(=O)C(C)C)n1 (stereo partly drawn) [Compound 9]
- DC50 [1]: 41 nM
- Dmax [1]: 86%

SMILES: CCc1cc2c(cc1C#CCCCN1CCC(c3ccc4c(c3)CN(C3CCC(=O)NC3=O)C4=O)CC1)C(C)(C)c1[nH]c3cc(C#N)ccc3c1C2=O (stereo not drawn) [Compound 22]
- DC50 [1]: 6 nM
- Dmax [1]: 82%

SMILES: COc1cc(C2CCN(C[C@H]3CCN(c4ccc5c(c4)C(=O)N(C4CCC(=O)NC4=O)C5=O)C3)CC2)c(C)cc1Nc1ncc(Cl)c(Nc2ccccc2S(=O)(=O)C(C)C)n1 (stereo partly drawn) [Compound 8, 5-[(3R)-3-[(4-{4-[(5-chloro-4-{[2-(propane-2-sulfonyl)phenyl]amino}pyrimidin-2-yl)amino]-5-methoxy-2-methylphenyl}piperidin-1-yl)methyl]pyrrolidin-1-yl]-2-(2,6-dioxopiperidin-3-yl)-2,3-dihydro-1H-isoindole-1,3-dione]
- DC50 [1]: 124 nM
